Test results published in patent US20220241208A1, “PHARMACEUTICAL COMPOSITIONS FOR THE TREATMENT OF HBV” (priority 2019, published 2022).

Assays:
[1] = SGF/FaSSIF two-stage gastric transfer non-sink dissolution test; assay type: physicochemical; conditions: dosed dry (SDD dry powder or API), 30 min SGF, then FaSSIF pH 6.8
Experimental: In-vitro drug dissolution performance for each SDD prepared in Example 1 and described in Table 1 (i.e., Formulations 1-4) was evaluated by a two-stage gastric transfer non-sink dissolution test, which stimulates pH and bile salt concentrations for both gastric and intestinal exposure. A drug product sample start in 0.1N HCl(aq) (simulated gastric fluid or SGF) for 30 minutes at which point an equal volume of concentrated fasted-state simulated intestinal fluid (FaSSIF) is added to the SGF, resulting in a final pH of 6.8 in FaSSIF (100 mM PBS, 2.24 mg/mL SIF, Biorelevant Inc.).
The dissolution performance of the SDDs of Formulations 1-4 and crystalline Compound 1 was tested. The dissolution test is used to measure the supersaturation of drug above the bulk crystalline Compound 1 solubility in biorelevant intestinal media (FaSSIF) after 30 minutes exposure to a low-pH environment (SGF). During the test, samples were transferred from SGF [theoretical Cmax=1000 μA/mL] to FaSSIF SGF [theoretical Cmax=500 μA/mL].
The dissolution performance of the jet-milled material and crystalline Compound 1 was tested in a non-sink dissolution test, to measure the supersaturation of the drug above the bulk crystalline Compound 1 solubility in biorelevant intestinal media (FaSSIF) after 30 minutes exposure to a low-pH environment (SGF). During the test, samples were transferred from SGF to FaSSIF SGF. […]

HBV [2] = test: Study 202: Compound 1+ETV vs placebo+ETV in treatment-naive HBeAg positive viremic chronic hepatitis B subjects; assay type: in vivo, human; conditions: Tx naïve HBeAg+ subjects
Experimental: In this study (also referred to as study 202), 25 treatment-naive HBeAg positive […] subjects are randomized 1:1 (Group 1: […] FIG. 1 depicts a flow chart of the study. […] Subjects (Group 2) with chronic HBV who are currently not being treated receive matching placebo along with SOC NUC (entecavir [ETV]) tablets orally for 24 weeks. Subjects receive SOC NUC (0.5 mg QD of ETV) orally as per approved package insert and matching QD placebo tablets orally. […] Subjects return to the clinic at weeks (wk) 2 and 4 and then monthly up to wk 24. Clinical labs, safety and PK are monitored, as well as HBV biomarkers including HBV DNA, HBV RNA, HBsAg and HBeAg. At weeks 12 and 24, longitudinal serum samples are assayed for detectable virus. Compound 1 is abbreviated as C1 in the tables and figures.

HBV [3] = test: Study 211: open-label extension study of Compound 1 + Nrtl combination therapy; set-up: species or system human; conditions: in vivo
From the text: Compound 1 was investigated in an open-label, extension study (Study 211) to evaluate the safety and efficacy of combination therapy and Compound 1's effect on sustained viral response biomarkers. […] Study 211 utilized the four assays described in Studies 201 and 202.
Participants with chronic HBV who were currently not being treated received Compound 1 along with SOC NUC (entecavir [ETV]) tablets orally for 24 weeks. Eligible participants entered a separate extension study after Week 24 to continue open-label Compound 1 for up to an additional year.

[4] = listed as Crystalline Compound 1

O=C(NCc1cnc(C(F)(F)F)s1)c1ccc2c(c1)NC(=O)c1ccccc1S2(=O)=O [Formulation 5, 11-oxo-N-((2-(trifluoromethyl)thiazol-5-yl)methyl)-10,11-dihydrodibenzo[b,f][1,4]thiazepine-8-carboxamide 5,5-dioxide]
AUC35-210FaSSIF (area under the curve after transfer to FaSSIF from 35 to 210 minutes) [1]: 5300 min * μgA/mL
C210 (drug concentration at 180 minutes after transfer to FaSSIF) [1]: 27.6 μgA/mL
Cmax FaSSIF (maximum drug concentration after transfer to FaSSIF) [1]: 33.4 μgA/mL
AUC35-210FaSSIF (area under the curve after transfer to FaSSIF from 35 to 210 minutes) [1, 4]: 5300 min * μgA/mL
Cmax FaSSIF (maximum drug concentration after transfer to FaSSIF) [1, 4]: 33.4 μgA/mL

C=C1[C@H](CO)[C@@H](O)C[C@@H]1n1cnc2c(=O)[nH]c(N)nc21 [ETV, entecavir]
HBV DNA mean log10 decline (HBV [2]; Week 12): 3.29 log10 IU/mL
HBV RNA mean log10 decline (HBV [2]; Week 12): 0.44 log10 copies/mL
HBV DNA mean log10 decline (HBV [2]; Week 24): 3.99 log10 IU/mL
HBV RNA mean log10 decline (HBV [2]; Week 24): 0.61 log10 copies/mL

O=C(NCc1cnc(C(F)(F)F)s1)c1ccc2c(c1)NC(=O)c1ccccc1S2(=O)=O [Compound 1, 11-oxo-N-((2-(trifluoromethyl)thiazol-5-yl)methyl)-10,11-dihydrodibenzo[b,f][1,4]thiazepine-8-carboxamide 5,5-dioxide]
effect on pgRNA levels (HBV [3]): multi-log reduction in pgRNA levels

O=C(NCc1cnc(C(F)(F)F)s1)c1ccc2c(c1)NC(=O)c1ccccc1S2(=O)=O [Compound 1-Jet Mill, 11-oxo-N-((2-(trifluoromethyl)thiazol-5-yl)methyl)-10,11-dihydrodibenzo[b,f][1,4]thiazepine-8-carboxamide 5,5-dioxide]
AUC35-210FaSSIF (area under the curve after transfer to FaSSIF from 35 to 210 minutes) [1]: 5400 min * μgA/mL
C210 (drug concentration at 180 minutes after transfer to FaSSIF) [1]: 29.6 μgA/mL
Cmax FaSSIF (maximum drug concentration after transfer to FaSSIF) [1]: 38.0 μgA/mL
